The numbers were not newly measured in patent publication US20230355643A1, “SOLVENT DELIVERY SYSTEM FOR TOPICAL DELIVERY OF ACTIVE AGENTS” (Timber Pharmaceuticals, Inc., priority 2019, published 2023), which cites them from elsewhere.

The conditions of this series: log10 of organic solvent (such as octanol)/aqueous solvent partition coefficient.

As usually defined, the logP is the decadic logarithm of the partition coefficient of the neutral form, usually between octanol and water. Consider `CN1C(C(=O)Nc2ccccn2)=C(O)c2ccccc2S1(=O)=O` [piroxicam], for which the logP is reported as roughly 3.06.

As to `CC(C(=O)O)c1cccc(Oc2ccccc2)c1` (stereo not drawn) [fenoprofen], the log partition coefficient (logP) is listed as roughly 3.1.

`O=C(O)c1cc(-c2ccc(F)cc2F)ccc1O` [diflunisal]: the logP is 4.44.

As for `CCOC(=O)c1ccc(C#Cc2ccc3c(c2)C(C)(C)CCS3)nc1` [tazarotene, ethyl 6-[2-(4,4-dimethyl-2,3-dihydrothiochromen-6-yl)ethynyl]pyridine-3-carboxylate], the logP is given as roughly 5.6.

For the compound `C=C1/C(=C\C=C2/CCC[C@]3(C)[C@@H]([C@H](C)/C=C/[C@@H](O)C4CC4)CC[C@@H]23)C[C@@H](O)C[C@@H]1O` [calcipotriol], the logP is roughly 3.84.

For `O=C(Oc1ccccc1C(=O)O)c1ccccc1O` [salsalate], the logP is recorded as roughly 3.44.

Regarding `Cc1ccc(-c2ncc(Cl)cc2-c2ccc(S(C)(=O)=O)cc2)cn1` [etoricoxib], the logP is reported as roughly 3.7.

With `Clc1ccc(CO/N=C(\Cn2ccnc2)c2ccc(Cl)cc2Cl)c(Cl)c1` [oxiconazole], the log partition coefficient (logP) is roughly 5.84.

Consider `CN(C)CCC(c1ccc(Cl)cc1)c1ccccn1` (stereo not drawn) [chlorpheniramine], for which the log partition coefficient (logP) is given as roughly 3.38.

Regarding `CN(C)CCC(c1ccc(Br)cc1)c1ccccn1` (stereo not drawn) [brompheniramine], the logP is 3.4.

For ivermectin, the logP is listed as roughly 5.83.

Turning to `CC(C)(C)c1ccc(C(=O)CCCN2CCC(OC(c3ccccc3)c3ccccc3)CC2)cc1` [ebastine], the logP is reported as 6.96.

As to `COc1ccc2c(c1)c(CC(=O)O)c(C)n2C(=O)c1ccc(Cl)cc1` [indometocin], the logP is on record as roughly 4.27.

In the case of `Clc1ccc(COC(Cn2ccnc2)c2ccc(Cl)cc2Cl)cc1` (stereo not drawn) [econazole], the logP is roughly 5.5.

For the compound `Cc1cccc(Nc2ccccc2C(=O)O)c1C` [mefenamic acid], the logP is roughly 5.12.

With `Cc1onc(-c2ccccc2)c1-c1ccc(S(N)(=O)=O)cc1` [valdecoxib], the logP was roughly 3.32.

Consider `CN1CCC[C@@H]1CCO[C@](C)(c1ccccc1)c1ccc(Cl)cc1` [clemastine], for which the logP is listed as roughly 5.2.

Consider `CC(C(=O)O)c1cccc(C(=O)c2ccccc2)c1` (stereo not drawn) [ketoprofen], for which the logP was ~3,12.

Take `Clc1ccc(COC(Cn2ccnc2)c2ccc(Cl)cc2Cl)c(Cl)c1` (stereo not drawn) [miconazole]: the logP is roughly 6.1.

For the compound `CC(C(=O)O)c1ccc(-c2ccccc2)c(F)c1` (stereo not drawn) [flurbiprofen], the logP was roughly 4.16.

In the case of texaphyrin, the logP is given as roughly 6.76.
